Measurements reported in ChEMBL document CHEMBL1150842, “Two new fatty diterpenoids from Salvia miltiorrhiza” (J Nat Prod, 2001).

Legend:
Assay type in all cases: functional, cell-based
Conditions in all cases: Oryctolagus cuniculus
[1] = Antiplatelet activity against washed rabbit platelet assessed as inhibition of arachidonic acid-induced platelet aggregation preincubated for 3 mins before arachidonic acid challenge
[2] = Antiplatelet activity against washed rabbit platelet assessed as inhibition of collagen-induced platelet aggregation preincubated for 3 mins before collagen challenge
[3] = Antiplatelet activity against washed rabbit platelet assessed as inhibition of thrombin-induced platelet aggregation preincubated for 3 mins before thrombin challenge

IC50 [1] [µM]	IC50 [2] [µM]	IC50 [3] [µM]	Compound
5.1	50.4	> 100	CCCCCCCC/C=C\CCCCCCCC(=O)OCC(C)C1=C(O)C(=O)c2c(ccc3c2CCCC3(C)C)C1=O (configuration not stated)
25.5	60.5	> 100	CCCCCCCC/C=C\CCCCCCCC(=O)OCC(C)C1=C(O)C(=O)c2c(ccc3c(C)cccc23)C1=O (configuration not stated) [16-O-OLEOYL DANSHENXINKUN A]
27			CC(=O)Oc1ccccc1C(=O)O [ASPIRIN]
